The text below walks through data of US11571418B2, “Platinum compounds that inhibit constitutive STAT3 signaling and induce cell cycle arrest and apoptosis of malignant cells” (H. LEE MOFFITT CANCER CENTER AND RESEARCH INSTITUTE, INC., priority 2011, dated 2023).

One assay addresses T1, Stat3 (Mus musculus, UniProt P42227).
T1 construct: Nuclear extract preparation from NIH3T3 stimulated by rhIL-6, NIH3T3/hEGFR stimulated by rhEGF; endogenous in cells; host or cells: NIH3T3/hEGFR fibroblasts stimulated with rhEGF (nuclear extract)
Description: In vitro Stat3 DNA-binding activity assay, EMSA with hSIE probe. On the procedure:
FIGS. 1A-1E. Inhibition of in vitro Stat3 DNA-binding activity by a platinum complex. Nuclear extracts or cell lysates containing activated Stat1, Stat3 and Stat5, or E2F1 prepared from NIH3T3/hEGFR that are stimulated with EGF or Sf-9 insect cells that are infected with baculovirus expressing Stat1, Stat3, Stat5, or E2F1, respectively, were treated with or without the indicated concentrations of platinum complex, PLATINUM-401 or Cisplatin, for 30 min at room temperature prior to incubation with radiolabeled oligonucleotide probes, and subjected to EMSA analysis. (FIG. 1A) (i) Stat1 and Stat3 binding activities to hSIE probe, (ii) Stat1 and Stat5 binding activities to MGFe probe, and (iii) plot of % oligonucleotide probe-STAT:STAT complexes versus concentration of PLATINUM-401. […] Positions of STAT: STAT-DNA complexes in gel are labeled. In (A) to (C), the control lanes represent DMSO (vehicle)-treatment.
Nuclear extract preparation and gel shift assays—Nuclear extract preparation from NIH3T3 stimulated by rhIL-6, NIH3T3/hEGFR stimulated by rhEGF, v-Src-transformed fibroblasts (NIH3T3/v-Src) or tumor cell lines and electrophoretic mobility shift assay were carried out as previously described (Turkson et al., 1998; Garcia et al., 1997; Yu et al., 1995). The ^32P-labeled oligonucleotide probes used are hSIE (high affinity sis-inducible element from the c-fos gene, m67 variant, 5′-[…]) (SEQ ID NO:1) that binds Stat1 and Stat3 (Garcia et al., 1997; Wagner et al., 1990) and MGFe (mammary gland factor element from the bovine β-casein gene promoter, 5′-AGATTTCTAGGAATTCAA) (SEQ ID NO:2) for Stat1 and Stat5 binding (49,50). Except where indicated, inhibitor compound was pre-incubated with the nuclear extract for 30 min at room temperature prior to incubation with radiolabeled probe.
Compounds from the NCI 2000 diversity set were screened for inhibition of Stat3 signaling in an in vitro DNA-binding activity assay based on analysis by electrophoretic mobility shift assay (EMSA). A platinum (IV) complex, PLATINUM-401 (NSC 295558) (FIG. 1E), was identified as a potent inhibitor of Stat3 and was further characterized for its anti-Stat3 properties. In the in vitro DNA-binding activity assay, nuclear extracts of equal total protein containing active Stat1, Stat3 and Stat5 were pre-incubated with different concentrations of PLATINUM-401 for 30 min prior to incubation with a [^32P]-labeled oligonucleotide, the m67 high affinity sis-inducible element (hSIE) probe that binds Stat1 and Stat3, or the mammary gland factor element (MGFe) that binds Stat1 and Stat5. Samples were then subjected to EMSA.

In the next assay the target is T2, inactive Stat1 monomer (Homo sapiens, UniProt P42224).
T2 construct: made in house; host or cells: Sf-9 insect cells infected with baculovirus
The assay can be described thus: Inactive STAT monomer added to activated Stat3 before EMSA (titration of compound). Particulars: monomer added to activated Stat3, pre-incubated with compound 30 min. The class given is binding. Background: Mobility shift assays separate free from complexed probe on a gel.

The structures appear in SMILES notation.

As usually defined, the IC50 is the concentration needed to halve the response being measured. A lower IC50 goes with higher potency.

T1 sequence (P42227 2-770 limits assumed): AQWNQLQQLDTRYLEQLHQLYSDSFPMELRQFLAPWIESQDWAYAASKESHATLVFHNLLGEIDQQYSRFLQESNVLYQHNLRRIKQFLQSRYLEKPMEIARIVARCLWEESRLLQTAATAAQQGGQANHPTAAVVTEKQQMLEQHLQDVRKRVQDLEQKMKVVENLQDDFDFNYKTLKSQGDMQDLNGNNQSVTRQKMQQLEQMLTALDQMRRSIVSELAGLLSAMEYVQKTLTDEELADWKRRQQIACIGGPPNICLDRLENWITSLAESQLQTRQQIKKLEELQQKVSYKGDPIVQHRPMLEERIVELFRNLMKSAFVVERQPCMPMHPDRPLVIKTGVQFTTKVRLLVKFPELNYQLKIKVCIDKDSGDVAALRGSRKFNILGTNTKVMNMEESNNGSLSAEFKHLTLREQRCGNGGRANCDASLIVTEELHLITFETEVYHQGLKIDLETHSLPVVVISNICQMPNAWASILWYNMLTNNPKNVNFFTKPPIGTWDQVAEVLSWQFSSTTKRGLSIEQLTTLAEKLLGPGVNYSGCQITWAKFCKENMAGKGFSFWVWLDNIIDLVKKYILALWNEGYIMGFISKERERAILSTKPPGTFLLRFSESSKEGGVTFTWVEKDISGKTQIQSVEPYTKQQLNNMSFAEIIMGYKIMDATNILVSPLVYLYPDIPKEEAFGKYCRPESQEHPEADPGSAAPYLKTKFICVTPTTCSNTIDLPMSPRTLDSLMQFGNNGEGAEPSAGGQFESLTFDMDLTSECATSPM
T2 sequence (P42224 whole entry): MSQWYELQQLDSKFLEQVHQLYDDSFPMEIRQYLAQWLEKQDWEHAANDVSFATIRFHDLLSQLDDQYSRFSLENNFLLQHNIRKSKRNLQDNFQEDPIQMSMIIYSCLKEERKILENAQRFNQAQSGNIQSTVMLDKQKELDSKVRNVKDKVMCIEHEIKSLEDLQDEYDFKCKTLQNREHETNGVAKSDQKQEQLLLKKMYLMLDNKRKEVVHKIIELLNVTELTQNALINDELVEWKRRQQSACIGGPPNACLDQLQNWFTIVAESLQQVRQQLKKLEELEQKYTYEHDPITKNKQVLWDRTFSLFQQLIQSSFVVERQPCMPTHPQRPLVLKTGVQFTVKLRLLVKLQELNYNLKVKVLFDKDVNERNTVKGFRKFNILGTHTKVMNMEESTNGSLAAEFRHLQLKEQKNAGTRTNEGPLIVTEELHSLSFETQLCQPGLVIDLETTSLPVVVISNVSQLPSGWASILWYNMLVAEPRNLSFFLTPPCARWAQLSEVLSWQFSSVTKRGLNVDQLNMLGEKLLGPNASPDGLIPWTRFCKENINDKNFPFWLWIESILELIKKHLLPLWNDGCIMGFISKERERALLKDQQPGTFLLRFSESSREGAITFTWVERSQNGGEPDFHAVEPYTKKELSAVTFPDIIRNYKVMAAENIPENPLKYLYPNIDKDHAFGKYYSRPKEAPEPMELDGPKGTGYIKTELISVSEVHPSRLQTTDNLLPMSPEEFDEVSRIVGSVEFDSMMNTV

On Stat3, `CC(O)CN1CCN(CC(C)O)CC1` (centres unmarked) [PLATINUM-401] registered an IC50 of 1400 nM. The “effect on Stat3 DNA-binding activity at low protein amount” value at Stat3 (1 μg protein) was “strong and a dose-dependent decrease”. Moreover, the “type of inhibition of Stat3 DNA-binding activity (Lineweaver-Burke plot)” value on Stat3 (0.3-2 μM compound, varied hSIE probe) is given as “non-competitive”. Besides, the “effect on Stat3 DNA-binding activity at higher protein levels” value on Stat3 (2-3 μg protein) was “diminished effect”. For the same compound, the “effect on Stat3 DNA-binding activity when protein is first bound to DNA” value at Stat3 (Stat3 incubated with hSIE probe 30 min, then compound 3-30 min) was “fails to disrupt”. Also, on Stat3 (pre-incubated 30 min before hSIE probe), the “effect on DNA-binding activity of Stat3:Stat3 homodimer” value is recorded as “dose-dependent reduction”. The “effect on Stat3 DNA-binding activity on simultaneous addition of compound and hSIE probe” value on Stat3 (simultaneous addition, data not shown) was “inhibition”. For the same compound, at inactive Stat1 monomer, the “interaction with inactive Stat1 monomer” value was “also interacts”.
